Test results taken from patent US4022834A, “Antibacterially active hexamethylene-bis-biguanides” (priority 1972, dated 1977).
Where a name gives a salt, the structure may show the parent alone. Read-outs that look alike come from different tables or passages of the source.

Tests used:
plaque [1] = experiment: Plaque-index on test persons after mouth rinsing; type: in vivo; conditions: rinsing with 10 ml of 1,1 mM solution 3 times daily for 3 days; scale 0 (no plaque) to 3 (clearly visible plaque marginally)
Experimental: Plaque-index on test persons after rinsing with 10 ml of 1,1 mM solution 3 times daily for 3 days. The rinsing was during this time the only type of oral hygiene used.
Plaque-index, which is a recognized measure of plaque-inhibiting property, runs from 0 (no plaque) to 3 (clearly visible plaque marginally).

Staph. aureus = experiment: Inhibition of growth in aqueous solution and subcultivation in liquid medium, Staph. aureus; type: cell-based; conditions: Reference: Chlorohexidine=1
Text: (§1) Inhibition of growth in aqueous solution and subcultivation in liquid medium. Reference: Chlorohexidine=1.

Aerobacter aerogenes = experiment: Inhibition of growth in aqueous solution and subcultivation in liquid medium, Aerobacter aerogenes; type: cell-based; conditions: Reference: Chlorohexidine=1
Text: as §1

human epithelial cells = experiment: Cytotoxic effect on human epithelial cells in vitro; type: cell-based
Experimental: Cytotoxic effect on human epithelial cells in vitro after treatment for 5 minutes at 37° C. Reference: Chlorohexidine=1.

[2] = Acute peroral toxicity in mice; conditions: mouse, in vivo, po
bacteria = conditions: cited from earlier work
plaque [3] = conditions: rinsing of the mouth; cited from earlier work
plaque [4] = experiment: Plaque-index on test persons after mouth rinsing; type: in vivo; conditions: rinsing with 1,6 mM chlorohexidine under the same conditions; scale 0 to 3
[5] = treatment for 5 minutes at 37° C., Reference: Chlorohexidine=1

CC(C)CCC(C)NC(=N)NC(=N)NCCCCCCNC(=N)NC(=N)NC(C)CCC(C)C.Cl.Cl (stereo not shown) [Compound 8, 1,1'-hexamethylene-bis-[5-(1,4-dimethylpentyl)biguanide]-dihydrochloride]
Plaque index (plaque [1]): 0,70 | Inhibition of growth relative to chlorohexidine (Staph. aureus): 8 | Inhibition of growth relative to chlorohexidine (Aerobacter aerogenes): 1 | Cytotoxic effect relative to chlorohexidine (human epithelial cells; [5]): 1

N=C(NCCCCCCNC(=N)NC(=N)NC12CC3CC(CC(C3)C1)C2)NC(=N)NC12CC3CC(CC(C3)C1)C2 [Compound 4, 1,1'-hexamethylene-bis-[5-(1-adamantyl)biguanide]dihydrochloride]
Plaque index (plaque [1]): 0,36 | Inhibition of growth relative to chlorohexidine (Staph. aureus): 16 | Inhibition of growth relative to chlorohexidine (Aerobacter aerogenes): 8 | LD50 [2]: 2830 mg/kg

N=C(NCCCCCCNC(=N)NC(=N)Nc1ccc(Cl)cc1)NC(=N)Nc1ccc(Cl)cc1 [chlorohexidine, 1,1'-hexamethylene-bis-[5-(4-chlorophenyl)biguanide]]
Antibacterial activity (in words) (bacteria): antibacterial effect | Effect against gingivitis and caries (in words) (plaque [3]): prophylactic effect against gingivitis and caries | Inhibition of plaque formation (in words) (plaque [3]): marked inhibiting effect on the formation of plaque | Plaque index (plaque [4]): 0,75

N=C(NCCCCCCNC(=N)NC(=N)N1CC2CCC(CC2)C1)NC(=N)N1CC2CCC(CC2)C1 [Compound 2]
Plaque index (plaque [1]): 0,58 | Inhibition of growth relative to chlorohexidine (Staph. aureus): 1 | Inhibition of growth relative to chlorohexidine (Aerobacter aerogenes): 1 | Cytotoxic effect relative to chlorohexidine (human epithelial cells): 1/8

N=C(NCCCCCCNC(=N)NC(=N)NCC1CCCCC1)NC(=N)NCC1CCCCC1 [Compound 3]
Plaque index (plaque [1]): 0,19 | Inhibition of growth relative to chlorohexidine (Staph. aureus): 2 | Inhibition of growth relative to chlorohexidine (Aerobacter aerogenes): 8 | Cytotoxic effect relative to chlorohexidine (human epithelial cells; [5]): 1/2

CCC(C)CC(C)NC(=N)NC(=N)NCCCCCCNC(=N)NC(=N)NC(C)CC(C)CC (stereo not shown) [Compound 7, 1,1'-hexamethylene-bis-[5-(1,3-dimethylpenthyl)-biguanide]-dihydrochloride]
Plaque index (plaque [1]): 0,29 | Inhibition of growth relative to chlorohexidine (Staph. aureus): 8 | Inhibition of growth relative to chlorohexidine (Aerobacter aerogenes): 1 | Cytotoxic effect relative to chlorohexidine (human epithelial cells; [5]): 1

CCCCC(CC)CNC(=N)NC(=N)NCCCCCCNC(=N)NC(=N)NCC(CC)CCCC (stereo not shown) [Compound 9, 1,1'-hexamethylene-bis-[5-(2-ethylhexyl)biguanide], reference compound]
Antibacterial activity (in words) (bacteria): known for having antibacterial activity | Plaque index (plaque [1]): 0,52 | Inhibition of growth relative to chlorohexidine (Staph. aureus): 8 | Inhibition of growth relative to chlorohexidine (Aerobacter aerogenes): 2 | Toxicity compared with chlorohexidine (in words) (human epithelial cells; human epithelial cells in vitro): much more toxic | Cytotoxic effect relative to chlorohexidine (human epithelial cells; [5]): 4

N=C(NCCCCCCNC(=N)NC(=N)NC1CC2CCC1C2)NC(=N)NC1CC2CCC1C2 (stereo not shown) [Compound 5, 1,1'-hexamethylene-bis-[5-(2-endonorbornyl]biguanide)-dihydrochloride]
Plaque index (plaque [1]): 0,50 | Inhibition of growth relative to chlorohexidine (Staph. aureus): 1/2 | Inhibition of growth relative to chlorohexidine (Aerobacter aerogenes): 1/8 | Cytotoxic effect relative to chlorohexidine (human epithelial cells; [5]): 1/8

CC(C)CCCC(C)NC(=N)NC(=N)NCCCCCCNC(=N)NC(=N)NC(C)CCCC(C)C (stereo not shown) [Compound 1, 1,1'-hexamethylene-bis-[5-(1,5-dimethylhexyl)biguanide]dihydrochloride]
Plaque index (plaque [1]): 0,36 | Inhibition of growth relative to chlorohexidine (Staph. aureus): 4 | Inhibition of growth relative to chlorohexidine (Aerobacter aerogenes): 16 | LD50 [2]: 1690 mg/kg

[H]/N=C(\N/C(=N/[H])NCCCCCCNC(=N)NC(=N)Nc1ccc(Cl)cc1)Nc1ccc(Cl)cc1 [Chlorohexidine-digluconate, reference compound]
LD50 [2]: 1800 mg/kg

CCCCCC(C)NC(=N)NC(=N)NCCCCCCNC(=N)NC(=N)NC(C)CCCCC.Cl.Cl (stereo not shown) [Compound 6, 1,1'-hexamethylene-bis-[5-(1-methylhexyl)biguanide]-dihydrochloride]
Plaque index (plaque [1]): 0,27 | Inhibition of growth relative to chlorohexidine (Staph. aureus): 4 | Inhibition of growth relative to chlorohexidine (Aerobacter aerogenes): 1 | Cytotoxic effect relative to chlorohexidine (human epithelial cells; [5]): 1
